Measurements as given in patent publication US20260108588A1, “A COMPLEX COMPRISING A ALPHA-LACTALBUMIN AND A FATTY ACID OR LIPID FOR USE IN THE TREATMENT OR PREVENTION OF CANCER” (LINNANE PHARMA AB, priority 2022, published 2026).

Tested on: intestinal tumors of Apc^Min/+ mice
Test: Intestinal cancer model in Apc^Min/+ mice, BAMLET oral gavage, tumor enumeration and histology
Assay type: in vivo
Protocol: Apc^Min/+ mice were obtained from Jackson Laboratories at about eight weeks of age. Genotyping was performed by PCR analysis of genomic DNA obtained from blood collected from the retro-orbital sinus. Multiple tumors were developed in the small intestine at eight to ten weeks. Mice were acclimated for about two weeks at the local animal facility at BMC, Lund University in order to reduce stress from transportation.
For BAMLET therapeutic protocol, ten-week-old female mice (n=10 per group) were orally gavaged with 20 mg of BAMLET in 400 μl PBS, twice daily for ten days. Mice were not given water or food five hours prior to BAMLET administration. Food and water were provided 30 minutes after BAMLET oral administration. Sham treated mice were gavaged with 400 μl PBS. Mice were sacrificed two weeks and five weeks after the end of the treatment and intestinal tissue samples were collected for further analysis.
Mice were sacrificed by isoflurane inhalation. Tumor enumeration and sample collection was presented as previously described^28. Tumor numbers and size were determined using a dissecting microscope (Olympus) and evaluated by three blinded investigators.
The opened intestinal segments were spread flat between sheets of filter paper and fixed overnight in 10% neutral buffered formalin. Formalin-fixed sections were transferred to 70% ethanol and stained with 0.2% methylene blue (Sigma, #M9140). Stained sections were rinsed in deionized water and imaged by a dissecting microscope.
Swiss rolls of longitudinally opened intestinal segments were fixed overnight in 10% neutral buffered formalin. Samples were embedded in paraffin and 5 μm thick sections were further processed for histology and immunohistochemistry using antibodies for bovine alpha-Lactalbumin (ThermoFisher Scientific, Cat #A10-128A), β-catenin (CellSignaling, Cat #9562), Cyclin D1 (ThermoFisher Scientific, Cat #SC8396), Ki-67 (BD Biosciences, Cat #556003), VEGF (Abcam, Cat #ab46154), PD-1 (Abcam, Cat #ab214421) and TTF-1 (Abcam, Cat #ab227652) as previously described^28 with slight modifications. Citrate buffer (Dako Target Retrieval Solution, Agilent, Cat #S1699) was used for antigen retrieval for Cyclin D1, Ki-67, VEGF, bovine alpha-Lactalbumin and β-catenin staining. EDTA buffer (Abcam, Cat #ab64216) was used for antigen retrieval for TTF-1 staining. Immunohistochemistry was quantified by ImageJ. For Hematoxylin-Eosin (H&E) staining, Hematoxylin (ThermoFisher Scientific, Cat #7211) was used followed by Eosin-Y (ThermoFisher Scientific, Cat #7111) for counterstaining. Images were captured using the AX10 microscope or the Hamamatzu Nanozoomer scanner (Carl Zeiss) and the DAB-positive beta-catenin antibody fields (4-10) for each organ cross-sections were quantified by ImageJ.

## BAMLET
20 mg gavage twice daily for ten days, two and five weeks post oral gavage, vs sham
  total polyp number: lower
Apc^Min/+ mice, H&E sections, BAMLET vs sham (PBS)
  number of small tumors, fully formed polyps and confluent tumors along the intestinal wall: reduced
BAMLET treated Apc^Min/+ mice vs sham group, FIG. 1f
  tumor areas: smaller
After short-term BAMLET treatment, H&E sections
  villus structure: normal villus structure was detected in the majority of sections
